# Measured values from US20240067679A1, “SARS-COV-2 PROTEIN-DERIVED PEPTIDE AND VACCINE CONTAINING SAME” (Onco Therapy Science, Inc., priority 2021, published 2024).
# Where two headings read alike, the source gives them in different places.
# T1: SARS-CoV-2 ORF1ab peptide on HLA-A*02:01 (human)
# T1 peptide: TLMIERFVSL
# T2: SARS-CoV-2 ORF1ab peptide on HLA-A*02:01 (human)
# T2 peptide: NVLAWLYAAV
# B1: Peptide 10-responsive TCR (TCR)
# alpha TRAV8-6 TRAJ36 CDR3: CAITGANNLFF
# beta TRBV20-1 TRBJ1-5 CDR3: CSAEDRGSNSNQPQHF
# B2: Peptide 12-responsive TCR-2 (TCR)
# alpha TRAV24 TRAJ29 CDR3: CAFLSGNTPLVF
# beta TRBV27 TRBJ1-6 CDR3: CASSPAAYSPLHF
# B3: Peptide 12-responsive TCR-1 (TCR)
# alpha TRAV1-2 TRAJ20 CDR3: CAVRDPRNDYKLSF
# beta TRBV27 TRBJ1-1 CDR3: CATQVNTEAFF
# Columns and labels:
# [1] = tested on: HLA-A*24:02-expressing target cells (TISI cells); type: cell-based, human
# [2] = tested on: HLA-A*02:01-expressing target cells (T2 cells); type: cell-based, human
# [3] = tested on: HLA-A*02:06-expressing target cells (HEV0011 cells); type: cell-based, human
# [4] = tested on: HLA-A*02:01-expressing target cells (T2 cells); type: cell-based, human; remark: listed apart in the source
# [5] = tested on: HLA-A*02:06-expressing target cells (HEV0011 cells); type: cell-based, human; remark: listed apart in the source
# [6] = tested on: HLA-A*24:02-expressing target cells (TISI cells); type: cell-based, human; remark: listed apart in the source
# [7] = target: T1, SARS-CoV-2 ORF1ab peptide on HLA-A*02:01; assay: cytokine release
# [8] = target: T2, SARS-CoV-2 ORF1ab peptide on HLA-A*02:01; assay: cytokine release
# [9] = cells induced from HLA-A*24:02-positive PBMCs, peptide-pulsed TISI cells vs TISI cells not pulsed
# [10] = cells induced from HLA-A*02:01-positive PBMCs, peptide-pulsed T2 cells vs T2 cells not pulsed
# [11] = HLA-A*02:06-restricted CTL lines, peptide-pulsed HEV0011 cells
# [12] = HLA-A*02:01-restricted CTL lines, peptide-pulsed T2 cells
# [13] = cells induced from HLA-A*02:06-positive PBMCs, peptide-pulsed HEV0011 cells vs HEV0011 cells not pulsed
molecule,measurement,setting,value
"FGMSRIGMEV (a peptide derived from N polyprotein of SARS-CoV-2) [Peptide 9, SARS-CoV-2 N protein-derived 10 mer peptide, position 315]",Peptide-specific IFN-γ production (ELISPOT),[1]; [9],no peptide-specific IFN-γ production was observed
same,Peptide-specific IFN-γ production (ELISPOT),[2]; [10],observed
"FMIDVQQWGF (a peptide derived from ORF1ab polyprotein of SARS-CoV-2) [Peptide 15, SARS-CoV-2 ORF1ab-derived 10 mer peptide, position 6165]",IFN-γ production by CTL lines (ELISA),[3]; [11],observed
same,Peptide-specific IFN-γ production (ELISPOT),[1]; [9],no peptide-specific IFN-γ production was observed
same,Peptide-specific IFN-γ production (ELISPOT),[2]; [10],observed
same,IFN-γ production by CTL lines (ELISA),[4]; [12],observed
same,Peptide-specific IFN-γ production (ELISPOT),[5]; [13],observed
FTYASALWEI [Peptide 7],IFN-γ production by CTL lines (ELISA),[3],observed
same,Peptide-specific IFN-γ production (ELISPOT),[1],no peptide-specific IFN-γ production was observed
same,Peptide-specific IFN-γ production (ELISPOT),[2],observed
same,IFN-γ production by CTL lines (ELISA),[4],observed
same,Peptide-specific IFN-γ production (ELISPOT),[5],observed
FVLWAHGFEL [Peptide 3],IFN-γ production by CTL lines (ELISA),[3],observed
same,Peptide-specific IFN-γ production (ELISPOT),[1],observed
same,Peptide-specific IFN-γ production (ELISPOT),[2],observed
same,IFN-γ production by CTL lines (ELISA),[4],observed
same,Peptide-specific IFN-γ production (ELISPOT),[5],observed
same,Detection of tetramer-positive CD8-positive T cells recognizing the peptide,CD8-positive T cells,detected
same,IFN-γ production by CTL lines (ELISA),[6],observed
LMYKGLPWNV [Peptide 2],Peptide-specific IFN-γ production (ELISPOT),[1],no peptide-specific IFN-γ production was observed
same,Peptide-specific IFN-γ production (ELISPOT),[2],observed
same,IFN-γ production by CTL lines (ELISA),[4],observed
same,Peptide-specific IFN-γ production (ELISPOT),[5],not observed
"MMGFKMNYQV (a peptide derived from ORF1ab polyprotein of SARS-CoV-2) [Peptide 5, SARS-CoV-2 ORF1ab-derived 10 mer peptide, position 5982]",Peptide-specific IFN-γ production (ELISPOT),[1]; [9],no peptide-specific IFN-γ production was observed
same,Peptide-specific IFN-γ production (ELISPOT),[2]; [10],observed
"MMILSDDAV (a peptide derived from ORF1ab polyprotein of SARS-CoV-2) [Peptide 8, SARS-CoV-2 ORF1ab-derived 9 mer peptide, position 5147]",Peptide-specific IFN-γ production (ELISPOT),[2]; [10],not observed
"NVLAWLYAAV (a peptide derived from ORF1ab polyprotein of SARS-CoV-2) [Peptide 12, SARS-CoV-2 ORF1ab-derived 10 mer peptide, position 3466]",IFN-γ production by CTL lines (ELISA),[3]; [11],observed
same,Peptide-specific IFN-γ production (ELISPOT),[1]; [9],no peptide-specific IFN-γ production was observed
same,Peptide-specific IFN-γ production (ELISPOT),[2]; [10],observed
same,IFN-γ production by CTL lines (ELISA),[4]; [12],observed
same,Peptide-specific IFN-γ production (ELISPOT),[5]; [13],observed
"SLFDMSKFPL (a peptide derived from ORF1ab polyprotein of SARS-CoV-2) [Peptide 1, SARS-CoV-2 ORF1ab-derived 10 mer peptide, position 7041]",Peptide-specific IFN-γ production (ELISPOT),[1]; [9],no peptide-specific IFN-γ production was observed
same,Peptide-specific IFN-γ production (ELISPOT),[2]; [10],observed
"TLEPEYENSV [Peptide 13, SARS-CoV-2 ORF1ab-derived 10 mer peptide, position 5740]",Peptide-specific IFN-γ production (ELISPOT),[1]; [9],no peptide-specific IFN-γ production was observed
same,Peptide-specific IFN-γ production (ELISPOT),[2]; [10],observed
"TLMIERFVSL (a peptide derived from ORF1ab polyprotein of SARS-CoV-2) [Peptide 10, SARS-CoV-2 ORF1ab-derived 10 mer peptide, position 5245]",IFN-γ production by CTL lines (ELISA),[3]; [11],observed
same,Peptide-specific IFN-γ production (ELISPOT),[1]; [9],no peptide-specific IFN-γ production was observed
same,Peptide-specific IFN-γ production (ELISPOT),[2]; [10],observed
same,IFN-γ production by CTL lines (ELISA),[4]; [12],observed
same,Peptide-specific IFN-γ production (ELISPOT),[5]; [13],observed
"YMPASWVMRI (a peptide derived from ORF1ab polyprotein of SARS-CoV-2) [Peptide 4, SARS-CoV-2 ORF1ab-derived 10 mer peptide, position 3654]",IFN-γ production by CTL lines (ELISA),[3]; [11],observed
same,Peptide-specific IFN-γ production (ELISPOT),[1]; [9],no peptide-specific IFN-γ production was observed
same,Peptide-specific IFN-γ production (ELISPOT),[2]; [10],observed
same,IFN-γ production by CTL lines (ELISA),[4]; [12],observed
same,Peptide-specific IFN-γ production (ELISPOT),[5]; [13],observed
"YSFLPGVYSV (a peptide derived from ORF1ab polyprotein of SARS-CoV-2) [Peptide 14, SARS-CoV-2 ORF1ab-derived 10 mer peptide, position 3098]",Peptide-specific IFN-γ production (ELISPOT),[1]; [9],no peptide-specific IFN-γ production was observed
same,Peptide-specific IFN-γ production (ELISPOT),[2]; [10],observed
"YVYNPFMIDV (a peptide derived from ORF1ab polyprotein of SARS-CoV-2) [Peptide 11, SARS-CoV-2 ORF1ab-derived 10 mer peptide, position 6160]",IFN-γ production by CTL lines (ELISA),[3]; [11],observed
same,Peptide-specific IFN-γ production (ELISPOT),[1]; [9],observed
same,Peptide-specific IFN-γ production (ELISPOT),[2]; [10],observed
same,IFN-γ production by CTL lines (ELISA),[4]; [12],observed
same,Peptide-specific IFN-γ production (ELISPOT),[5]; [13],observed
same,IFN-γ production by CTL lines (ELISA),"[6]; HLA-A*24:02-restricted CTL lines, peptide-pulsed TISI cells",observed
B1,binding result,[7],recognises
B2,binding result,[8],recognises
B3,binding result,[8],recognises
